According to patent US20090270497A1, “Treatment of Non-Localized Inflammation with pan-HDAC Inhibitors” (PHARMACYCLICS, INC., priority 2008, published 2009):

What was measured:
[1] = tested on: inducible nitric oxide synthase (iNOS); experiment: iNOS expression by Western blot in LPS-treated RAW cells; type: cell-based; details: various amounts for 30 min, LPS 100 ng/ml 16 hours
Protocol: Cell lysates were analyzed by Western blot with antibodies to the inducible nitric oxide synthase (iNOS) (above) and HuR (below) as a negative control. […] (FIG. 3).

RAW cells [2] = experiment: Cytokine mRNA expression by RT-PCR in LPS-treated RAW cells; type: cell-based; details: 0.1 μM for 30 min, then 100 ng/ml LPS 6 hours
Protocol: RT-PCR was performed (30 cycles), and PCR products were analyzed on a 1% agarose gel. […] (FIG. 1)

[3] = tested on: sepsis by treatment with LPS; experiment: Survival after induction of sepsis by LPS (endotoxemia); type: in vivo
Protocol: At 72 hours after induction of sepsis by treatment with LPS, a subject has a 0% chance of survival. […] This remains constant through 144 hours.
Culture media was collected and analyzed by ELISA for TNFα, IL-1β and IL-6 proteins (n=3±S.D.). […] (FIG. 4).

[4] = tested on: Class I and Class II HDAC isoforms; experiment: HDAC isoform inhibition (all Class I and Class II); type: biochemical
RAW cells [5] = experiment: Secreted cytokine protein by ELISA in LPS-treated RAW cells; type: cell-based; details: 0.1 μM for 30 min, LPS 100 ng/ml for 16 hr
Text: Culture media was collected and analyzed by ELISA for TNFα, IL-1β and IL-6 proteins (n=3±S.D.). […] (FIG. 2).

In the case of CN(C)Cc1c(C(=O)NCCOc2ccc(C(=O)NO)cc2)oc2ccccc12 [Compound 1], the iNOS expression [1] was “decreases in a dose-dependant manner”, the “RNA level of IL-1β” value (RAW cells [2]) was “decreased” and the “RNA level of IL-6” value (RAW cells [2]) was “decreased”. The “RNA level of TNF” value (RAW cells [2]) was “decreased”, the chances of survival ([3]; 25 μg/gram of body weight, at 72 hours after LPS, steady through 144 hours) was 30% and the chances of survival ([3]; 50 μg/gram of body weight, constant through 144 hours after LPS) was 70%. The “increase of survival from endotoxemia” value ([3]; FIG. 4 legend, dose not stated) was 70%, the “inhibition of all Class I and Class II HDAC isoforms” value [4] was “inhibits all Class I and Class II HDAC isoforms” and the “IL-1β protein in culture media” value (RAW cells [5]) was “decreases”. For the same compound, the “IL-6 protein in culture media” value (RAW cells [5]) was “decreases” and the “TNFα protein in culture media” value (RAW cells [5]) was “decreases”.
